Columns and labels:
[1] = Chemical stability of prodrugs in aqueous buffers; type: physicochemical
Procedure: (§1) The stabilities of prodrugs were evaluated in one or more in vitro systems using a variety of tissue preparations following methods known in the art. The chemical stability of prodrugs in aqueous buffers at pH's of 2.0, 7.4 and 8.0 were also measured. […] Each preparation was incubated with test compound at 37° C. for one hour. Aliquots (50 μL) were removed at 0, 30, and 60 min and quenched with 0.1% trifluoroacetic acid in acetonitrile. Samples were then centrifuged and analyzed by LC/MS/MS (see Example 86 below for method details).

[2] = Caco-2 homogenate S9 stability; type: in vitro ADME; conditions: Caco-2 S9 (0.5 mg protein per mL), 5 μM, 37° C.
Procedure: Caco-2 Homogenate S9 Stability: Caco-2 cells were grown for 21 days prior to harvesting. Culture medium was removed and cell monolayers were rinsed and scraped off into ice-cold 10 mM sodium phosphate/0.15 M potassium chloride, pH 7.4. Cells were lysed by sonication at 4° C. using a probe sonicator. Lysed cells were then transferred into 1.5 mL centrifuge vials and centrifuged at 9000 g for 20 min at 4° C. The resulting supernatant (Caco-2 cell homogenate S9 fraction) was aliquoted into 0.5 mL vials and stored at −80° C. until used.
For stability studies, prodrug (5 μM) was incubated in Caco-2 homogenate S9 fraction (0.5 mg protein per mL) for 60 min at 37° C. Concentrations of intact prodrug and released baclofen were determined at zero time and 60 minutes using LC/MS/MS.

[3] = Prodrug stability in rat liver S9; type: in vitro ADME; conditions: Rat Liver S9 (0.5 mg/mL), 2.0 μM, NADPH, 37° C.
Procedure: as §1

[4] = Prodrug stability in human liver S9; type: in vitro ADME; conditions: Human Liver S9 (0.5 mg/mL), 2.0 μM, NADPH, 37° C.
Procedure: as §1

[5] = Prodrug stability in human plasma in vitro; type: in vitro ADME; conditions: 2.0 μM, 37° C.
Procedure: as §1

[6] = tested on: pancreatin; assay: Pancreatin stability; type: in vitro ADME, porcine; conditions: 1% (w/v) pancreatin, 5 μM, pH 7.5, 37° C.
Procedure: Pancreatin Stability: Stability studies were conducted by incubating prodrug (5 μM) with 1% (w/v) pancreatin (Sigma, P-1625, from porcine pancreas) in 0.025 M Tris buffer containing 0.5 M NaCl (pH 7.5) at 37° C. for 60 min. The reaction was stopped by addition of 2 volumes of methanol. After centrifugation at 14,000 rpm for […], the supernatant was removed and analyzed by LC/MS/MS.

[7] = Prodrug stability in rat plasma in vitro; type: in vitro ADME; conditions: 2.0 μM, 37° C.
Procedure: as §1

Structure (SMILES) | % of Baclofen Released after 60 min ([1]; aqueous buffer pH 2.0, 37° C.) [%] | % of Baclofen Released after 60 min ([1]; aqueous buffer pH 7.4, 37° C.) [%] | % of Baclofen Released after 60 min ([1]; aqueous buffer pH 8.0, 37° C.) [%] | % of Prodrug Remaining after 60 min [2] [%] | % of Prodrug Remaining after 60 min [3] [%] | % of Prodrug Remaining after 60 min [4] [%] | % of Baclofen Released after 60 min [5] [%] | % of Prodrug Remaining after 60 min ([1]; aqueous buffer pH 2.0, 37° C.) [%] | % of Prodrug Remaining after 60 min ([1]; aqueous buffer pH 7.4, 37° C.) [%] | % of Baclofen Released after 60 min [2] [%] | % of Baclofen Released after 60 min [4] [%] | % of Prodrug Remaining after 60 min ([1]; aqueous buffer pH 8.0, 37° C.) [%] | % of Prodrug Remaining after 60 min [6] [%] | % of Baclofen Released after 60 min [7] [%] | % of Baclofen Released after 60 min [6] [%] | % of Baclofen Released after 60 min [3] [%] | % of Prodrug Remaining after 60 min [7] [%]
CC(=O)OCOC(=O)NC[C@H](CC(=O)[O-])c1ccc(Cl)cc1.[Na+] [(10), Sodium 4-[(Acetoxymethoxy)carbonylamino]-(3R)-(4-chlorophenyl)-butanoate] | 1 | 3 | 9 | 2 | 0 | 1 |  |  |  |  |  |  |  |  |  |  | 
O=C([O-])C[C@@H](CNC(=O)OCOC(=O)c1ccccc1)c1ccc(Cl)cc1.[Na+] [(12), Sodium 4-[(Benzoyloxymethoxy)carbonylamino]-(3R)-(4-chlorophenyl)-butanoate] | 0 | 0 | 0 | 2 | 3 | 1 | 5 | 100 | 100 | 100 | 100 |  |  |  |  |  | 
O=C([O-])C[C@@H](CNC(=O)OCOC(=O)C1CCCCC1)c1ccc(Cl)cc1.[Na+] [(14), Sodium 4-[(Cyclohexanecarboxymethoxy)carbonylamino]-(3R)-(4-chlorophenyl)-butanoate] | 1 | 1 | 2 | 2 | 2 | 2 |  |  |  |  |  | 102 | 2 |  |  |  | 
CC(C)(C)C(=O)OCOC(=O)NC[C@H](CC(=O)[O-])c1ccc(Cl)cc1.[Na+] [(20), Sodium 4-[(Pivaloyloxymethoxy)carbonylamino]-(3R)-(4-chlorophenyl)-butanoate] | 0 | 0 | 0 | 1 |  | 1 | 9 | 100 | 100 | 100 |  |  |  | 8 |  |  | 
CC(=O)OC(OC(=O)NC[C@H](CC(=O)[O-])c1ccc(Cl)cc1)C(C)C.[Na+] (stereo partly drawn) [(23), Sodium 4-[(1-Acetoxyisobutoxy)carbonylamino]-(3R)-(4-chlorophenyl)-butanoate] | 0 | 1 | 2 |  | 3 | 4 | 3 | 107 |  |  |  |  |  |  |  |  | 
CCCC(=O)OC(OC(=O)NC[C@H](CC(=O)[O-])c1ccc(Cl)cc1)C(C)C.[Na+] (stereo partly drawn) [(27), Sodium 4-[(1-Butanoyloxyisobutoxy)carbonylamino]-(3R)-(4-chlorophenyl)-butanoate] | 0 | 0 | 1 |  | 0 | 8 | 12 |  |  |  |  |  |  |  | 9 |  | 
CC(OC(=O)NC[C@H](CC(=O)[O-])c1ccc(Cl)cc1)OC(=O)C(C)C.[Na+] (stereo partly drawn) [(33), Sodium 4-[(1-Isobutanoyloxyethoxy)carbonylamino]-(3R)-(4-chlorophenyl)-butanoate] | 0 | 0 | 0 | 3 | 4 | 3 | 4 |  |  |  | 101 |  |  |  |  | 101 | 
CC(C)C(=O)O[C@H](C)OC(=O)NC[C@H](CC(=O)[O-])c1ccc(Cl)cc1.[Na+] [(34), Sodium 4-{[(1S)-Isobutanoyloxyethoxy]carbonylamino}-(3R)-(4-chlorophenyl)-butanoate] | 0 | 0 | 0 | 2 | 1 | 3 | 2 |  | 100 | 100 | 100 | 100 |  |  | 18 | 100 | 
CC(OC(=O)NC[C@H](CC(=O)[O-])c1ccc(Cl)cc1)OC(=O)c1ccccc1.[Na+] (stereo partly drawn) [(40), Sodium 4-[(1-Benzoyloxyethoxy)carbonylamino]-(3R)-(4-chlorophenyl)-butanoate] | 0 | 0 | 2 |  | 8 | 1 | 2 |  |  |  |  |  |  |  |  |  | 
CC(C)C(OC(=O)NC[C@H](CC(=O)[O-])c1ccc(Cl)cc1)OC(=O)C(C)(C)C.[Na+] (stereo partly drawn) [(43), Sodium 4-[(1-Pivaloyloxyisobutoxy)carbonylamino]-(3R)-(4-chlorophenyl)-butanoate] | 0 | 0 | 0 |  | 3 |  | 2 |  |  |  |  |  |  |  | 4 |  | 
CCOC(C)(OCC)C(=O)OCOC(=O)NC[C@H](CC(=O)[O-])c1ccc(Cl)cc1.[Na+] [(51), Sodium 4-[(2,2-Diethoxypropanoyloxymethoxy)carbonylamino]-(3R)-(4-chlorophenyl)-butanoate] | 0 | 2 | 9 | 3 | 2 | 6 |  |  |  | 100 | 91 |  |  |  | 50 |  | 
O=C([O-])C[C@@H](CNC(=O)OCOC(=O)c1cccs1)c1ccc(Cl)cc1.[Na+] [(57), Sodium 4-[(2-Thienylcarbonyloxymethoxy)carbonylamino]-(3R)-(4-chlorophenyl)-butanoate] | 0 | 0 | 0 | 2 | 2 | 1 |  |  | 100 |  |  | 100 |  |  |  |  | 
CC(C)CC(=O)OCOC(=O)NC[C@H](CC(=O)[O-])c1ccc(Cl)cc1.[Na+] [(59), Sodium 4-[(3-Methylbutanoyloxymethoxy)carbonylamino]-(3R)-(4-chlorophenyl)-butanoate] | 0 | 1 | 2 | 3 | 2 | 1 |  |  | 103 |  |  |  |  |  |  | 85 | 2
CC(C)C(=O)OC(OC(=O)NC[C@H](CC(=O)[O-])c1ccc(Cl)cc1)C1CCCCC1.[Na+] (stereo partly drawn) [(84), Sodium 4-[(1-Isobutanoyloxy-1-cyclohexylmethoxy)carbonylamino]-(3R)-(4-chlorophenyl)-butanoate] | 0 | 0 | 1 |  | 4 | 2 | 4 |  |  |  |  |  |  |  |  | 91 | 
CCC[C@H](OC(=O)NC[C@H](CC(=O)[O-])c1ccc(Cl)cc1)OC(=O)C(C)C.[Na+] [(91), Sodium 4-{[(1S)-Isobutanoyloxybutoxy]carbonylamino}-(3R)-(4-chlorophenyl)-butanoate] | 0 | 0 | 1 | 6 |  | 1 | 2 |  |  |  |  |  |  |  | 78 |  | 
CC(C)C(=O)O[C@@H](OC(=O)NC[C@H](CC(=O)[O-])c1ccc(Cl)cc1)C(C)C.[Na+] [(92), Sodium 4-{[(1S)-Isobutanoyloxyisobutoxy]carbonylamino}-(3R)-(4-chlorophenyl)-butanoate] | 0 | 0 | 1 |  | 6 | 4 | 1 |  |  |  | 80 |  |  |  | 7 |  | 
CC(C)C(=O)O[C@@H](OC(=O)NC[C@H](CC(=O)O)c1ccc(Cl)cc1)C(C)C [(104)] | 0 | 0 | 0 |  | 3 | 3 | 2 |  | 100 |  | 97 | 100 | 90 |  | 6 |  | 
